Where two headings read alike, the source gives them in different places. *1 amine or outer side, *2 acyl side, *3 side chain or, on linkers, in order; H or OH if unused. Where a SMILES comes first, the peptide text is derived from it. Bridges are numbered along the chain shown (N, C = ends). [ ]: non-standard residue; d: D form. Acbc(trans-1,3) = O=C([C@H]1C[C@H](N[*:1])C1)[*:2]; Acbc(cis-1,3) = O=C([C@H]1C[C@@H](N[*:1])C1)[*:2]; X1 = O=C([C@@H]1CCC[C@@H]1N[*:1])[*:2]; Orn = NCCC[C@H](N)C(=O)O
Tests used:
[1] = Serum stability assay (LC/MS); type: in vitro ADME, human; conditions: for half-life: human
Experimental: (§1) Binding affinities of IA1 and IA2 against IFNGR1 were evaluated by surface plasmon resonance (SPR) (Table 1 and SI Figure S6A). […] To investigate the contribution of the N-terminal [yVPβ^1RR] motif and β^1 residue in IA1, three scrambled peptides IA1s1–3 and a variant IA1β^14A were synthesized and evaluated. […] We next evaluated inhibitory activities of IA1 and IA2 against the ligand–receptor PPI between IFN-γ and IFNGR1 using AlphaLISA (Table 1 and SI Figure S7).[37] […] We also determined the serum half-lives of IA1 and IA2, considering peptidase resistance as an important factor for therapeutic peptides.[24] A sample peptide and a peptidase-resistant internal standard peptide were coincubated in human serum at 37 °C, and the relative amount of the remaining sample peptide was estimated by LC/MS. […]
10–200 μM synthetic peptide and 5 μM serum-resistant internal standard peptide consisting only of D-amino acids (NH2-PEG5-wstndwstnd-PEG5-CONH2)3 were mixed and incubated in human serum (Cosmo Bio, 12181201) at 37 °C for up to 120 h. At each time point, 4 μL of the mixture was removed and quenched by adding 12 μl methanol. Following centrifugation (15,000 g, 4 °C, 5 min), 10 μL of the supernatant was mixed with 40 μl of 1% (v/v) TFA. Following centrifugation (15,000 g, 4 °C, 5 min), the supernatant was collected for LC/MS analysis, which used a reverse-phase column (ACQUITY UPLC BEH C18, 1.7 μm, 2.1 × 150 mm; Waters) and a Xevo G2-XS QTof system (Waters) with a linear gradient from 1% B to 61% B. Buffer A was water with 0.1% (v/v) formic acid; buffer B was acetonitrile with 0.1% (v/v) formic acid. The percentages of remaining peptides were determined by the peak area integration of the chromatograms. For tandem mass spectrometry, MS/MS spectra were acquired with a 0.2 s scan time, with 10−30 eV collision energy. The obtained LC/MS data was analyzed using MassLynx 4.1 (Waters). […]

[2] = biological target: T1, IFN-γ/IFNGR1 protein–protein interaction (Homo sapiens, UniProt P15260); test: IFNGR1 inhibition assay using AlphaLISA; type: biochemical; conditions: four-parameter dose–response fit, n = 3
T1 construct: purchased ACROBiosystems
T1 sequence (P15260 18-245 limits assumed): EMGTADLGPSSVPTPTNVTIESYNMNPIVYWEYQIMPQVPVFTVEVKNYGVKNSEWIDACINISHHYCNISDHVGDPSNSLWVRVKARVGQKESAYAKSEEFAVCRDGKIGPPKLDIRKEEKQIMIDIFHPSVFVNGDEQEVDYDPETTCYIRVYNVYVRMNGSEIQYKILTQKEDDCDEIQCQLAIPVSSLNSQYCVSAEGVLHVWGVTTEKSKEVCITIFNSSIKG
Experimental: IFNGR1 inhibition assay using AlphaLISA
The inhibitory activity of peptides against IFN-γ/IFNGR1 protein–protein interaction (PPI) was determined by AlphaLISA.5 Peptides, proteins, and beads were diluted in AlphaLISA immunoassay buffer (PerkinElmer, AL000C). 3.6 μL of 5 nM Fc-tagged IFNGR1 and 3.6 μL of synthetic peptides were mixed in AlphaPlate-384 Shallow Well (PerkinElmer) and preincubated at 25 °C for 10 min. 3.6 μL of 15 nM biotin-tagged IFN-γ was then added to the mix and incubated at 25 °C for 20 min. 3.6 μL each human IgG acceptor beads (PerkinElmer) and streptavidin donor beads (PerkinElmer) were added to the above mix and incubated at 25 °C for 30 min in dark place. Emission at 615 nm was measured […]
by EnSpire Multimode Plate Reader (PerkinElmer). The fraction of bound IFN-γ/IFNGR1 was calculated by the intensity of emission in the presence of peptide divided by that in the absence of […]
peptide. […]
Puromycin. Normocin, Blasticidin, Zeocin, and Puromycin were excluded when conducting the experiments. To evaluate the cellular activity of peptides, peptide mixtures were added to 50,000 cells/well in a flat-bottom 96-well plate and pre-incubated for 30 min at 37 °C before stimulation.
Subsequently, 1 ng/mL of recombinant IFN-γ (InvivoGen) was added to each well in a final reaction volume of 200 μL, followed by incubation for 20 h at 37 °C. 20 μL of supernatants from the induced cells was added to 180 μL Q U A N T I-Blue TM solution (InvivoGen). After further incubation for 3 h at 37 °C, the expression levels of the secreted embryonic alkaline phosphatase (SEAP) were determined by reading the O.D. at 650 nm on a Tecan M1000 PRO microplate reader (Tecan Group) and normalized to the non-treated well. IC50 value was analyzed by a normalized dose-response curve fitting by using GraphPad Prism 9.
HEK-DualTM IFN-γ cells were used for the cell viability assay. 10,000 cells/well were added to each well in a flat-bottom 96-well plate. After 24 h, peptide mixtures were added to each well in a final volume of 100 μL. After further incubation for 24 h, 10 μL CCK-8 reagent (Dojindo) was added to […]

[3] = biological target: T2, Fc-tagged human IFNGR1 (Homo sapiens, UniProt P15260); test: Binding kinetics and affinity to IFNGR1 by surface plasmon resonance (SPR); conditions: SPR, 25 °C, 1:1 binding model; for Kd: read-out: KD; for kon: single-cycle kinetics, read-out: ka
T2 construct: purchased ACROBiosystems
T2 sequence (P15260 18-489): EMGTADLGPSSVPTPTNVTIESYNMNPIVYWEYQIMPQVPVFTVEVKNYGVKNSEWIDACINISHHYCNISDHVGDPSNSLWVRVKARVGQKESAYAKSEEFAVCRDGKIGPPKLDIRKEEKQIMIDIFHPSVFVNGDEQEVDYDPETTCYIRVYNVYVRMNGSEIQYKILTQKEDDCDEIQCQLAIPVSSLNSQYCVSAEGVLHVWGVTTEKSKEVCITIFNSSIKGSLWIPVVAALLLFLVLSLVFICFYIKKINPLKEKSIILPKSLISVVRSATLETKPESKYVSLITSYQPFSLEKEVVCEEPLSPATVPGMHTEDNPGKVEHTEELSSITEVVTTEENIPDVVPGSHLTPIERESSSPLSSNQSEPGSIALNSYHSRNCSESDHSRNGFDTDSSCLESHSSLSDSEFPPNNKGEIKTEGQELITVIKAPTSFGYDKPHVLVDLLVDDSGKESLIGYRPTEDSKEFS
Experimental: as §1
Evaluation of binding affinity of peptides by surface plasmon resonance The binding affinities of selected peptides and IFNGR1 were analyzed by surface plasmon resonance (SPR) using a Biacore T200 instrument (Cytiva) at 25 °C with the following running buffer: 10 mM Tris-HCl (pH 8.0), 150 mM NaCl, 0.05% (v/v) Tween 20 , and 0.1% (v/v) DMSO. Fc-tagged IFNGR1 was immobilized on a series S sensor chip protein G (Cytiva) to a surface density of 1,200–1,600 response units following the immobilization protocols provided by Cytiva. The kinetic constants were determined by a single-cycle kinetics method by the injection of five different concentrations (twofold dilution series) of each peptide at a flow rate of 30 μL/min. The resulting sensorgrams were fitted to the standard 1:1 interaction model and analyzed using Biacore evaluation software. […]

[4] = human serum, 37 °C, LC/MS, relative to internal standard peptide, n = 3
[5] = human serum, 37 °C, LC/MS, relative to internal standard peptide, n = 3, read-out: half-life in human serum (t1/2) (converted)

half-life in human serum (t1/2) [1, 4] [h] | half-life [1, 5] [h] | IC50 [2] [nM] | Kd [3] [nM] | kon [3] [M⁻¹ s⁻¹] | half-life ([1]; serum, half-life in human serum (t1/2)) [h] | SMILES
0.71 ± 0.04 | 0.37 | 10 ± 1 | 6.1 ± 2.2 | 210000 ± 70000 | – | CC(C)[C@@H]1NC(=O)[C@@H](Cc2ccc(O)cc2)NC(=O)CSC[C@H](C(N)=O)NC(=O)[C@H](CC(N)=O)NC(=O)[C@H]2C[C@H](C2)NC(=O)[C@H](CCCNC(=N)N)NC(=O)[C@@H]2CCCN2C(=O)[C@H]([C@@H](C)O)NC(=O)[C@H](CCCNC(=N)N)NC(=O)[C@H](CCCNC(=N)N)NC(=O)[C@H](CO)NC(=O)[C@H](CCCNC(=N)N)NC(=O)[C@H](CCCNC(=N)N)NC(=O)[C@@H]2CCC[C@@H]2NC(=O)[C@@H]2CCCN2C1=O [IB4γ^213γ^1, ^AcyVPβ^1RRSRRTPRγ^1Nc-NH2] ({CH2CO}-[dY]VP[X1]RRSRRTPR[Acbc(cis-1,3)]N[dC]-NH2; thioether N-15)
– | 0.77 ± 0.02 | 550 ± 30 | 47 ± 15 | 250000 ± 250000 | – | CC(C)[C@@H]1NC(=O)[C@@H](Cc2ccc(O)cc2)NC(=O)CSC[C@H](C(N)=O)NC(=O)[C@H](CCCNC(=N)N)NC(=O)[C@H](CO)NC(=O)[C@H](CCCNC(=N)N)NC(=O)[C@H](Cc2c[nH]cn2)NC(=O)CNC(=O)[C@H]2C[C@@H](C2)NC(=O)[C@H](Cc2c[nH]cn2)NC(=O)[C@H](CC(N)=O)NC(=O)[C@H](CCCNC(=N)N)NC(=O)[C@H](CCCNC(=N)N)NC(=O)[C@@H]2CCC[C@@H]2NC(=O)[C@H](C)NC1=O [IB1γ^19γ^2, ^AcyVAβ^1RRNHγ^2GHRSRc-NH2] ({CH2CO}-[dY]VA[X1]RRNH[Acbc(trans-1,3)]GHRSR[dC]-NH2; thioether N-15)
1.3 ± 0.1 | < 1.3 | 79 ± 11 | 31 ± 8 | 200000 ± 90000 | – | CC(C)[C@@H]1NC(=O)[C@@H](Cc2ccc(O)cc2)NC(=O)CSC[C@H](C(N)=O)NC(=O)[C@H](C)NC(=O)[C@H](Cc2c[nH]cn2)NC(=O)[C@H](CCCNC(=N)N)NC(=O)[C@H](CCCNC(=N)N)NC(=O)CNC(=O)[C@H]2C[C@H](C2)NC(=O)[C@H](Cc2c[nH]cn2)NC(=O)[C@H](CC(N)=O)NC(=O)[C@H](CCCNC(=N)N)NC(=O)[C@H](CCCNC(=N)N)NC(=O)[C@@H]2CCC[C@@H]2NC(=O)[C@H](C)NC1=O [IB2, ^AcyVAβ^1RRNHγ^1GRRHAc-NH2] ({CH2CO}-[dY]VA[X1]RRNH[Acbc(cis-1,3)]GRRHA[dC]-NH2; thioether N-15)
– | > 2.6 | 330 ± 20 | 150 ± 40 | 120000 ± 50000 | – | CC(C)[C@@H]1NC(=O)[C@@H](Cc2ccc(O)cc2)NC(=O)CSC[C@H](C(N)=O)NC(=O)[C@H](CC(N)=O)NC(=O)[C@H](CO)NC(=O)[C@H](CCCNC(=N)N)NC(=O)[C@H](CO)NC(=O)[C@H]2C[C@@H](C2)NC(=O)[C@H](CC(N)=O)NC(=O)[C@H]([C@@H](C)O)NC(=O)[C@H](Cc2c[nH]cn2)NC(=O)[C@H](CCCNC(=N)N)NC(=O)[C@H](CCCNC(=N)N)NC(=O)[C@@H]2CCC[C@@H]2NC(=O)[C@@H]2CCCN2C1=O [IA2, ^AcyVPβ^1RRHTNγ^2SRSNc-NH2] ({CH2CO}-[dY]VP[X1]RRHTN[Acbc(trans-1,3)]SRSN[dC]-NH2; thioether N-15)
– | – | 17 ± 3 | 11 ± 3 | 1.4e+06 ± 900000 | 33 ± 1 | CC(C)[C@@H]1NC(=O)[C@@H](Cc2ccc(O)cc2)NC(=O)CSC[C@H](C(N)=O)NC(=O)[C@H](CCCN)NC(=O)[C@H](CO)NC(=O)[C@H](CCCN)NC(=O)[C@H](Cc2c[nH]cn2)NC(=O)CNC(=O)[C@H]2C[C@H](C2)NC(=O)[C@H](Cc2c[nH]cn2)NC(=O)[C@H](CC(N)=O)NC(=O)[C@H](CCCNC(=N)N)NC(=O)[C@H](CCCNC(=N)N)NC(=O)[C@@H]2CCC[C@@H]2NC(=O)[C@H](C)NC1=O [IB1Orn, ^AcyVAβ^1RRNHγ^1GHOSOc-NH2] ({CH2CO}-[dY]VA[X1]RRNH[Acbc(cis-1,3)]GH[Orn]S[Orn][dC]-NH2; thioether N-15)
– | 1.8 ± 0.6 | 14 ± 1 | 28 ± 6 | 92000 ± 27000 | – | CC(C)[C@@H]1NC(=O)[C@@H](Cc2ccc(O)cc2)NC(=O)CSC[C@H](C(N)=O)NC(=O)[C@H](CC(N)=O)NC(=O)[C@H](Cc2c[nH]cn2)NC(=O)[C@H](CCCNC(=N)N)NC(=O)[C@H](C)NC(=O)[C@H]([C@@H](C)O)NC(=O)[C@H](Cc2c[nH]cn2)NC(=O)[C@@H]2CCCN2C(=O)[C@H](CO)NC(=O)[C@H](CCCNC(=N)N)NC(=O)[C@H](CCCNC(=N)N)NC(=O)[C@@H]2CCC[C@@H]2NC(=O)[C@@H]2CCCN2C1=O [IB5γ^211A, ^AcyVPβ^1RRSPHTA RHNc-NH2] ({CH2CO}-[dY]VP[X1]RRSPHTARHN[dC]-NH2; thioether N-15)
– | 0.46 ± 0.05 | 7.8 ± 1.6 | 8.2 ± 1.4 | 790000 ± 330000 | – | CC(C)[C@@H]1NC(=O)[C@@H](Cc2ccc(O)cc2)NC(=O)CSC[C@H](C(N)=O)NC(=O)[C@H](CC(N)=O)NC(=O)[C@H](C)NC(=O)[C@H](CCCNC(=N)N)NC(=O)[C@@H]2CCCN2C(=O)[C@H]([C@@H](C)O)NC(=O)[C@H](CCCNC(=N)N)NC(=O)[C@H](CCCNC(=N)N)NC(=O)[C@H](CO)NC(=O)[C@H](CCCNC(=N)N)NC(=O)[C@H](CCCNC(=N)N)NC(=O)[C@@H]2CCC[C@@H]2NC(=O)[C@@H]2CCCN2C1=O [IB4γ^213A, ^AcyVPβ^1RRSRRTPRA Nc-NH2] ({CH2CO}-[dY]VP[X1]RRSRRTPRAN[dC]-NH2; thioether N-15)

From paper PMC11229689, “In Vitro Selection of Macrocyclic L-α/D-α/β/γ-Hybrid Peptides Targeting IFN-γ/IFNGR1 Protein–Protein Interaction” (Journal of the American Chemical Society, 2024)
